Test results reported in patent publication US20150197492A1, “NOVEL INDENO[1,2-c]QUINOLIN-11-ONE DERIVATIVES, PREPARATION METHOD AND APPLICATION THEREOF” (National Defense Medical Center, priority 2014, published 2015).

Tests used:
Format in all cases: cell-based
U251 = assay: cells; conditions: U251 (CNS Cancer), 10 μM, 48 hours
T-47D = assay: cells; conditions: T-47D (Breast Cancer), 10 μM, 48 hours
MALME-3M = assay: cells; conditions: MALME-3M (Melanoma), 10 μM, 48 hours
MCF7 = assay: cells; conditions: MCF7 (Breast Cancer), 10 μM, 48 hours
NCI-H226 = assay: cells; conditions: NCI-H226 (Non-Small Cell Lung Cancer), 10 μM, 48 hours
human PC-3 cells = assay: Sulforhodamine B (SRB) assay, cytotoxicity against PC-3 cells; conditions: Homo sapiens; SRB assay, PC-3 cells, 48 hours; read-out: IC50
Procedure: Add 5% Fetal Bovine Serum (FBS) to 96-well plate and fix the cells with 10% TCA after 24 hours of incubation and add the compound (T0). Add DMSO and culture for another 48 hours and the cells are fixed in 0.4% (W/V), 10% TCA and SRB, and […]. Excess SRB is washed off by 1% acetic acid and cells stained with SRB are dissolved in 10 mmol/L Trizma base. The absorbance is measured at 515 nm. The treatment time is 0 (T0), control growth (C) and the increase of the compound (Tx) in the cells are shown below and are used to calculate the increase of the concentration of the compound in percentage. Growth inhibition (GI %) is calculated using the following formula 100−[(TX−T0)/(C−T0)]×100. The 50% growth inhibition concentration (IC50) is used to confirm the concentration of compound and thus results in 50% reduction of the treated cells which control the amount of total protein.
This part of experimental results are SRB assays measuring cytotoxicity of the 26 synthesized compounds against human PC-3 cells and are summarized in Table 1 and 2.

HCT-15 = assay: cells; conditions: HCT-15 (Colon Cancer), 10 μM, 48 hours
MDA-MB-468 = assay: cells; conditions: MDA-MB-468 (Breast Cancer), 10 μM, 48 hours
ACHN = assay: cells; conditions: ACHN (Renal Cancer), 10 μM, 48 hours
RXF 393 = assay: cells; conditions: RXF 393 (Renal Cancer), 10 μM, 48 hours
SW-620 = assay: cells; conditions: SW-620 (Colon Cancer), 10 μM, 48 hours
UACC-257 = assay: cells; conditions: UACC-257 (Melanoma), 10 μM, 48 hours
KM12 = assay: cells; conditions: KM12 (Colon Cancer), 10 μM, 48 hours
SNB-75 = assay: cells; conditions: SNB-75 (CNS Cancer), 10 μM, 48 hours
IGROV1 = assay: cells; conditions: IGROV1 (Ovarian Cancer), 10 μM, 48 hours
K-562 = assay: cells; conditions: K-562 (Leukemia), 10 μM, 48 hours
SK-MEL-28 = assay: cells; conditions: SK-MEL-28 (Melanoma), 10 μM, 48 hours
RPMI-8226 = assay: cells; conditions: RPMI-8226 (Leukemia), 10 μM, 48 hours
SN12C = assay: cells; conditions: SN12C (Renal Cancer), 10 μM, 48 hours
SNB-19 = assay: cells; conditions: SNB-19 (CNS Cancer), 10 μM, 48 hours
MOLT-4 = assay: cells; conditions: MOLT-4 (Leukemia), 10 μM, 48 hours
UACC-62 = assay: cells; conditions: UACC-62 (Melanoma), 10 μM, 48 hours
[1] = system: 55 to 60 cancer cell lines; conditions: 10 μM; for Mean (mean growth percentage of the tested cancer cell lines): 48 hours, all tested cell lines
HT29 = assay: cells; conditions: HT29 (Colon Cancer), 10 μM, 48 hours
786-0 = assay: cells; conditions: 786-0 (Renal Cancer), 10 μM, 48 hours
UO-31 = assay: cells; conditions: UO-31 (Renal Cancer), 10 μM, 48 hours
MDA-MB-435 = assay: cells; conditions: MDA-MB-435 (Melanoma), 10 μM, 48 hours
OVCAR-4 = assay: cells; conditions: OVCAR-4 (Ovarian Cancer), 10 μM, 48 hours
A498 = assay: cells; conditions: A498 (Renal Cancer), 10 μM, 48 hours
SK-OV-3 = assay: cells; conditions: SK-OV-3 (Ovarian Cancer), 10 μM, 48 hours

| SMILES | growth percentage (U251) | growth percentage (T-47D) | growth percentage (MALME-3M) | growth percentage (MCF7) | growth percentage (NCI-H226) | growth percentage (HCT-15) | growth percentage (MDA-MB-468) | growth percentage (ACHN) | growth percentage (RXF 393) | growth percentage (SW-620) | growth percentage (UACC-257) | growth percentage (KM12) | growth percentage (SNB-75) | growth percentage (IGROV1) | growth percentage (K-562) | growth percentage (SK-MEL-28) | growth percentage (RPMI-8226) | growth percentage (SN12C) | growth percentage (SNB-19) | growth percentage (MOLT-4) | other results |
| --- | --- | --- | --- | --- | --- | --- | --- | --- | --- | --- | --- | --- | --- | --- | --- | --- | --- | --- | --- | --- | --- |
| O=C1c2cc(Cl)ccc2-c2c(SCCO)nc3ccccc3c21 [SJ-25, 6-(2-Hydroxyethylthio)-9-chloro-11H-indeno[1,2-c]quinolin-11-one] | 78.04% | 63.89% | 107.23% | 67.82% | 80.52% | 80.10% | 77.36% | 88.12% | 79.39% | 86.99% | 106.91% | 84.62% | 66.06% | 69.73% | 63.81% | 86.90% | 62.28% | 84.58% | 89.19% | 59.49% | IC50 (human PC-3 cells): > 10 µM; growth percentage (UACC-62): 84.47%; Mean (mean growth percentage of the tested cancer cell lines) [1]: 79.52%; growth percentage (HT29): 84.03%; growth percentage (786-0): 100.58%; growth percentage (UO-31): 56.23%; growth percentage (MDA-MB-435): 95.15%; growth percentage (OVCAR-4): 73.19% |
| O=C1c2cc(Cl)ccc2-c2c(Cl)nc3ccccc3c21 [TC-XCl-1, 6,9-Dichloro-11H-indeno[1,2-c]quinolin-11-one] | 100.63% | 86.97% | 102.06% | 74.25% | 91.86% | 114.88% | 107.92% | 111.67% | 112.80% | 98.29% | 127.99% | 111.92% | 82.91% | 92.82% | 102.16% | 90.08% | 92.83% | 88.03% | 101.30% | 70.83% | IC50 (human PC-3 cells): > 15 µM; growth percentage (UACC-62): 94.45%; Mean (mean growth percentage of the tested cancer cell lines) [1]: 98.17%; number of cancer cell lines whose growth is inhibited ([1]; including leukemia and breast cancer cells): 9; growth percentage (HT29): 104.27%; growth percentage (786-0): 112.40%; growth percentage (UO-31): 80.62%; growth percentage (MDA-MB-435): 100.46%; growth percentage (OVCAR-4): 94.13% |
| COc1nc2ccccc2c2c1-c1ccc(Cl)cc1C2=O [SJ-27, 6-Methoxy-9-chloro-11H-indeno[1,2-c]quinolin-11-one] | 97.67% | 78.97% | 107.54% | 71.98% | 89.22% | 94.98% | 99.51% | 90.83% | 114.49% | 98.89% | 98.20% | 98.35% | 59.75% | 96.92% | 108.53% | 106.24% | 90.30% | 89.48% | 96.35% | 110.33% | growth percentage (A498): 93.51%; growth percentage (UACC-62): 74.08%; Mean (mean growth percentage of the tested cancer cell lines) [1]: 96.23%; growth percentage (HT29): 111.60%; growth percentage (786-0): 103.51%; growth percentage (SK-OV-3): 119.79%; growth percentage (UO-31): 55.69%; growth percentage (MDA-MB-435): 100.31% |
